Laboratory results: US12419869B2, “Methods of treating multiple sclerosis” (Vanda Pharmaceuticals Inc., priority 2021, dated 2025)

Tests used:
[1] = tested on: adult subjects with relapsing MS; test: Treatment-emergent adverse events and premature treatment discontinuation, phase III study (Study 1); assay type: in vivo, human
Description: A total of 1438 MS patients have received PONVORY at doses of at least 2 mg daily. These patients were included in Study 1 (2-year active-controlled versus teriflunomide 14 mg) [see Clinical Studies (14)] and in a Phase 2 (6-month placebo-controlled) study in patients with MS and the uncontrolled extension studies.

[2] = tested on: adult subjects with relapsing MS; set-up: species or system human; conditions: human, in vivo, 2 year
Excerpt: Based on the individual case review, most ALT/AST increases ≥3×ULN occurred as a single transient asymptomatic episode, resolving with continued treatment or after protocol mandated treatment discontinuation. All but one case of bilirubin increase ≥2×ULN occurred in subjects with pre-treatment bilirubin increases. One case of potential Hy's law occurred in a subject with pre-existing transaminase elevation (ALT>5×ULN), and the event fully resolved within 2 weeks after treatment discontinuation.
In Study 1, elevations of ALT to 5-fold the upper limit of normal (ULN) or greater occurred in 4.6% of patients treated with PONVORY compared to 2.5% of patients who received teriflunomide 14 mg. […] The median time to an elevation of 3-fold the ULN was 3 months. The majority (89%) of patients with ALT increases 3-fold or greater the ULN continued treatment with PONVORY with values returning to less than three times the ULN within approximately 2-4 weeks.

[3] = tested on: adult subjects with relapsing MS; test: Pulmonary function (percent predicted FEV1), Study 1; assay type: in vivo, human
Description: In Study 1, the reduction from baseline in percent predicted FEV1 at 2 years was 8.3% in PONVORY-treated patients compared to 4.4% in patients receiving teriflunomide 14 mg. In Study 1, 7 patients discontinued PONVORY because of pulmonary adverse events. There is insufficient information to determine the reversibility of the decrease in FEV1 or FVC after treatment discontinuation. PONVORY should be used with caution in patients with severe respiratory disease (i.e., pulmonary fibrosis, asthma, and chronic obstructive pulmonary disease). Spirometric evaluation of respiratory function should be performed during therapy with PONVORY if clinically indicated.

[4] = tested on: adult subjects with relapsing MS; test: EDSS, time to first 12-week / 24-week confirmed disability accumulation (CDA); assay type: in vivo, human
Excerpt: A 12-week CDA is an increase of at least 1.5 in EDSS for subjects with a baseline EDSS score of 0.0 or an increase of at least 1.0 in EDSS for subjects with a baseline EDSS score of 1.0 to 5.0, or an increase of at least 0.5 in EDSS for subjects with a baseline EDSS score≥5.5 which is to be confirmed after 12 weeks.
All EDSS measurements (with or without relapse, at a scheduled or unscheduled visit) were used to determine the onset of disability accumulation. However, EDSS scores used for confirmation of disability accumulation were obtained at a scheduled visit (i.e., unscheduled visits cannot be used as confirmatory visits) outside any ongoing relapse. In this context, relapse duration is defined as period between start and end dates if available and limited to 90 days from onset if end date is not available or duration is longer than 90 days.
In order to confirm that the EDSS increase is persistent, all EDSS measurements between the onset and the 12-week EDSS confirmation (minus 7-day visit time-window) need to show an increase in EDSS, meeting the criteria for accumulation of disability as defined above.
A 24-week CDA is an increase of at least 1.5 in EDSS for subjects with a baseline EDSS score of 0.0 or an increase of at least 1.0 in EDSS for subjects with a baseline EDSS score of 1.0 to 5.0, or an increase of at least 0.5 in EDSS for subjects with a baseline EDSS score≥5.5 which is to be confirmed after 24 weeks.
The primary endpoint was the annualized relapse rate (ARR) over the study period. Additional outcome measures included: 1) the number of new Gd-enhancing T1 lesions from baseline to Week 108, 2) the number of new or enlarging T2 lesions (without double-counting of lesions) from baseline to Week 108, and 3) the time to 3-month and 6-month confirmed disability progression. A confirmed disability progression was defined as an increase of at least 1.5 in EDSS for patients with a baseline EDSS score of 0, an increase of at least 1.0 in EDSS for patients with a baseline EDSS score of 1.0 to 5.0, or an increase of at least 0.5 in EDSS for patients with a baseline EDSS score at least 5.5, which was confirmed after 3 months and 6 months.

C/C(O)=C(\C#N)C(=O)Nc1ccc(C(F)(F)F)cc1 [Teriflunomide, reference compound]
Discontinuation reason: Death ([1]; Safety Set): (0.4) %
Subjects who prematurely discontinued study treatment ([1]; Safety Set): (16.4) %
Subjects with at least one Fatal AE ([1]; Safety Set): (0.4) %
Day 1 AESI Electrocardiogram QT prolonged ([1]; human, in vivo): (0.2) %
Day 1 AESI Presyncope ([1]; human, in vivo): (02) %
AE leading to discontinuation, SOC Blood and lymphatic system disorders ([1]; human, in vivo, 2 year): (0.4) %
AE leading to discontinuation, SOC Cardiac disorders ([1]; human, in vivo, 2 year): (0.4) %
AE leading to discontinuation, SOC Gastrointestinal disorders ([1]; human, in vivo, 2 year): (0.7) %
AE leading to discontinuation, SOC General disorders and administration site conditions ([1]; human, in vivo, 2 year): (0.4) %
AE leading to discontinuation, SOC Hepatobiliary disorders ([1]; human, in vivo, 2 year): (0.4) %
AE leading to discontinuation, SOC Investigations ([1]; human, in vivo, 2 year): (1.8) %
AE leading to discontinuation, SOC Musculoskeletal and connective tissue disorders ([1]; human, in vivo, 2 year): (0.2) %
AE leading to discontinuation, SOC Neoplasms benign, malignant and unspecified (incl cysts and polyps) ([1]; human, in vivo, 2 year): (0.2) %
AE leading to discontinuation, SOC Nervous system disorders ([1]; human, in vivo, 2 year): (0.7) %
AE leading to discontinuation, SOC Pregnancy, puerperium and perinatal conditions ([1]; human, in vivo, 2 year): (0.5) %
AE leading to discontinuation, SOC Psychiatric disorders ([1]; human, in vivo, 2 year): (0.2) %
AE leading to discontinuation, SOC Reproductive system and breast disorders ([1]; human, in vivo, 2 year): (0.2) %
AE leading to discontinuation, SOC Skin and subcutaneous tissue disorders ([1]; human, in vivo, 2 year): (0.4) %
AE leading to discontinuation, SOC Social circumstances ([1]; human, in vivo, 2 year): (0.2) %
AE leading to discontinuation, SOC Surgical and medical procedures ([1]; human, in vivo, 2 year): (0.2) %
AESI Effect on heart rate and rhythm (including hypotension) ([1]; human, in vivo, 2 year): (4.2) %
AESI Macular edema ([1]; human, in vivo, 2 year): (0.2) %
AESI Non-skin malignancy ([1]; human, in vivo, 2 year): (0.2) %
AESI Skin malignancy ([1]; human, in vivo, 2 year): (0.2) %
Discontinuation reason: Physician decision, Adverse event ([1]; human, in vivo, 2 year): (1.6) %
Discontinuation reason: Pre-specified study treatment discontinuation criteria ([1]; human, in vivo, 2 year): (2.8) %
Discontinuation reason: Subject decision, Tolerability related ([1]; human, in vivo, 2 year): (0.9) %
Incidence of basal cell carcinoma ([1]; human, in vivo, 2 year): 0.2%
Overall rate of infections ([1]; human, in vivo, 2 year): 52.1%
Subjects discontinued due to AEs or tolerability related reasons ([1]; human, in vivo, 2 year): 2.5%
Subjects with at least one Drug-Related AE ([1]; human, in vivo, 2 year): (42.0) %
Subjects with at least one Severe AE ([1]; human, in vivo, 2 year): (4.6) %
TEAE ALT increased ([1]; human, in vivo, 2 year): 9.4%
TEAE headache ([1]; human, in vivo, 2 year): 12.7%
TEAE nasopharyngitis ([1]; human, in vivo, 2 year): 16.8%
TEAE upper respiratory tract infection ([1]; human, in vivo, 2 year): 10.4%
Adverse reaction: C-reactive protein increased ([1]; human, in vivo, 2 years): 1%
Adverse reaction: Cough ([1]; human, in vivo, 2 years): 2%
Adverse reaction: Dizziness ([1]; human, in vivo, 2 years): 3%
Adverse reaction: Dyspnea ([1]; human, in vivo, 2 years): 1%
Adverse reaction: Hepatic transaminase elevation ([1]; human, in vivo, 2 years): 12%
Adverse reaction: Hypercholesterolemia ([1]; human, in vivo, 2 years): 1%
Adverse reaction: Hypertension ([1]; human, in vivo, 2 years): 9%
Adverse reaction: Pain in extremity ([1]; human, in vivo, 2 years): 3%
Adverse reaction: Pyrexia ([1]; human, in vivo, 2 years): 1%
Adverse reaction: Somnolence ([1]; human, in vivo, 2 years): 2%
Adverse reaction: Urinary tract infection ([1]; human, in vivo, 2 years): 5%
Adverse reaction: Vertigo ([1]; human, in vivo, 2 years): 1%
AESI Macular edema ([1]; in vivo): none
Discontinuation reason: Lost to follow-up ([1]; in vivo): (0.5) %
Discontinuation reason: Physician decision ([1]; in vivo): (4.1) %
Discontinuation reason: Physician decision, Lack of efficacy/treatment failure ([1]; in vivo): (1.8) %
Discontinuation reason: Physician decision, Other ([1]; in vivo): (0.7) %
Discontinuation reason: Subject decision ([1]; in vivo): (8.7) %
Discontinuation reason: Subject decision, Efficacy related ([1]; in vivo): (2.5) %
Discontinuation reason: Subject decision, Not known ([1]; in vivo): (0.7) %
Discontinuation reason: Subject decision, Other ([1]; in vivo): (4.6) %
Discontinuation rate because of elevations in hepatic enzymes [2]: 1.9%
Patients with elevations of ALT to 5-fold the ULN or greater [2]: 2.5%
Subjects with ALT increase >3×ULN (label: 3-fold the ULN or greater) [2]: 8.3%
Subjects with ALT increase >8×ULN [2]: 2.1%
Reduction from baseline in percent predicted FEV1 at 2 years [3]: 4.4%
Proportion of Patients with 3-month Confirmed Disability Progression ([4]; Kaplan-Meier estimates at Week 108): 13.2%
Subjects with 24-week CDA ([4]; up to EOS): 9.9%
